Reference: patent US8026229B2, “Antitumor-active 2-alkoxyestradiol sulfamates” (Sterix Limited, priority 2001, dated 2011)

Assays:
tubulin = details: literature, J. Med. Chem. 1997, 40, 2323-2334; cited from earlier work
[1] = molecular target: T1, microtubular protein (tubulin) from porcine brains (Sus scrofa, UniProt P02550+P02554); experiment: Inhibition of tubulin polymerization in vitro (turbidimetry at 340 nm); format: biochemical; details: microtubular protein 1 mg/ml, 0.25 mM GTP, 37° C.
T1 construct: Microtubular protein was purified by the method of Shelanski et al; from tissue; host or cells: porcine brain
T1 sequence (P02554 whole entry): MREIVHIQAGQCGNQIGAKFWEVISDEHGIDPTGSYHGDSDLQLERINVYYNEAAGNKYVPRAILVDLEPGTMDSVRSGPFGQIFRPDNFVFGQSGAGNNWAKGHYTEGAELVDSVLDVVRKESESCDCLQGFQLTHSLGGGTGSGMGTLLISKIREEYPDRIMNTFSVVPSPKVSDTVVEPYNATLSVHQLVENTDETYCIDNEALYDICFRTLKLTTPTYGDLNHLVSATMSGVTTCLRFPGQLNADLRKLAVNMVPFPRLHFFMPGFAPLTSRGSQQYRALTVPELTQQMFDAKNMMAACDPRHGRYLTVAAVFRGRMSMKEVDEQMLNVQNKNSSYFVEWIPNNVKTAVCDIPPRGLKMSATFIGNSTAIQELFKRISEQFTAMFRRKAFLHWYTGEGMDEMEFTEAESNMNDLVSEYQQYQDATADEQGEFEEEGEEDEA
T1 sequence (P02550 whole entry): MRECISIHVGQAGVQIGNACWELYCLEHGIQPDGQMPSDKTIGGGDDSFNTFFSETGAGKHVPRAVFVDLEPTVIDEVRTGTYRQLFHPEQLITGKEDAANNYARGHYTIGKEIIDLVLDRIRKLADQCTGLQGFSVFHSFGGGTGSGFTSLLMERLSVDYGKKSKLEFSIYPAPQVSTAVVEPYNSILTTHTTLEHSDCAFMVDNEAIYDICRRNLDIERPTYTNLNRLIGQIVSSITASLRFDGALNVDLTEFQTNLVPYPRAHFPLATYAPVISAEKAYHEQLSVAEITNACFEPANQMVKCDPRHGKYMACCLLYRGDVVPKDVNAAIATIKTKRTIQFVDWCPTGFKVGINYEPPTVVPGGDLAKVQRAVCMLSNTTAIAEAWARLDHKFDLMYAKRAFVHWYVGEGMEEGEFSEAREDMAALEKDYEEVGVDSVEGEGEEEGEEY
Procedure: The inventive compounds were tested in various models. The inventive compounds of general formula I are remarkable in that they inhibit tubulin polymerization more than does 2-methoxyestradiol. The effect on tubulin polymerization was tested in vitro in the following way:
Microtubular protein was purified by the method of Shelanski et al. (Shelanski et al., Proc. Natl. Acad. Sci. USA 1973, 70, 765-8) via cyclic assembly/disassembly from porcine brains. The buffer system used had the following composition: 20 mM PIPES (1,4-piperazinediethanesulfonic acid, pKa 6.8), 80 mM NaCl, 0.5 mM MgCl2, 1 mM EGTA (ethylene glycol bis(2-aminoethyl)tetraacetic acid). Protein concentrations of 1 mg/ml (approx. […] tubulin) were used to test the active substance. The protein was determined by the method of Lowry (Lowry et al., J. Biol. Chem. 1951, 193, 265-75) using bovine serum albumin as standard. The assembly of the microtubuli was carried out in the presence of 0.25 mM GTP and heating of the samples to 37° C.
Microtubulus formation was checked using turbidimetry at a wavelength of 340 nm.
The active substances were tested by adding them at the beginning of the assembly or at the state of equilibrium. Their effectiveness is characterized by deviations in the turbidity curves from those of the control. To check the effect and evaluate the turbidity values measured, a transmission electron microscopic examination (CEM 902 A, Zeiss, Oberkochen, Germany) of the assemblate was always carried out after negative staining with 1% aqueous uranyl acetate.

| SMILES | Activity in inhibition of tubulin polymerization compared with 2-methoxyestradiol (tubulin) | IC50 [1] |
| --- | --- | --- |
| CCOc1cc2c(cc1O)CC[C@@H]1[C@@H]2CC[C@]2(C)[C@@H](O)CC[C@@H]12 [2-ethoxyestradiol] | higher than that of 2-methoxyestradiol | – |
| COc1cc2c(cc1O)CCC1C2CC[C@@]2(C)C1CC[C@@H]2O (stereo partly shown) [2-Methoxyestradiol] | – | > 3000 nM |
| COc1cc2c(cc1OS(N)(=O)=O)CCC1C2CC[C@]2(C)C(=O)CCC12 (stereo partly shown) [2-Methoxyestrone-3-sulfamate] | – | 1600 nM |
| COc1cc2c(cc1OS(N)(=O)=O)CC[C@@H]1[C@@H]2CC[C@]2(C)[C@@H](O)CC[C@@H]12 [Example 1, 2-Methoxy-17β-hydroxy-estra-1,3,5(10)-trien-3-yl sulfamate] | – | 1000 nM |
